# Structures can show the parent of a compound that is named as a salt.
# Key:
# [1] = system: WT-GFP cells (Hepa1); assay: Cell fluorescence analysis (relative fluorescence as cell survival) after HF treatment; format: cell-based; settings: HF at various doses up to 50 nM, 48 hours
# Procedure: (§1) WT-GFP and Keap1-mCherry Hepa1 cells were prepared in the same manner as in Mol Cell Biol., 2020 Oct 26, 40(22). The cells were maintained in Dulbecco's modified Eagle's medium (DMEM) containing 10% (v/v) fetal bovine serum and antibiotics (penicillin-streptomycin) at 37° C. and 5% CO2.
# (§2) For cell fluorescence analysis, 4×10^4 WT-GFP cells and 2×10^4 Keap1-mCherry Hepa1 cells were cultured separately on day −1 in a black 96-well plate (Corning; number 3904). On day 0, HF or saline was introduced at various concentrations, and then the plate was returned to an incubator at 37° C. until day 2. The fluorescence intensities of the cells were measured using a PHERAstar FS microplate reader (BMG Labtech, Ortenberg, Germany).
# (§3) HF has been reported to suppress Nrf2 accumulation in cells (FIG. 1A). To examine the tumor suppressive role of HF in Nrf2-activated tumor cells, enhanced green fluorescent protein (EGFP)-expressing wild type (WT) Hepa1 cells (hereinafter also referred to as “WT-GFP cells”) and mCherry-expressing Keap1 knockout cells (hereinafter also referred to as “Keap1 KO-mCherry cells”) were treated with HF. Both isogenic cell lines used were the same as those in Mol Cell Biol., 2020 Oct 26, 40(22). […] It has been shown in Mol Cell Biol., 2020 Oct 26, 40(22) that there is a correlation between the relative fluorescence intensity and the cell survival rate.
# [2] = system: Keap1 KO-mCherry cells (Hepa1); assay: as above; format: cell-based; settings: HF at various doses up to 50 nM, 48 hours
# Procedure: as §1, §2, §3
# [3] = system: Nrf2-activated lung adenocarcinoma; assay: Tumor suppression in Kras-driven Nrf2-activated lung adenocarcinoma mouse model; format: in vivo, Keap1^FB/FB:Kras^G12D mice
# Text: (§4) Keap1^FB/FB:Kras^G12D mice were produced in the same manner as in Cancer Res, 15 Aug. 2020, 80(16):3331-3344, Genes & Dev., 2001, 15:3243-3248, and Am J Respir Cell Mol Biol., 2010 May, 42(5):524-36. All the mice used in this test had the C57BL/6J background. Saline, HF, and HFm were intravenously injected to the mice. All the in vivo experiments were approved by the animal welfare committee of Tohoku University.
# Adeno-Cre was purchased from VectorBioLabs (Ad-Cre-GFP, catalog no. 1700). Adeno-Cre was administered in the same manner as in Nat Protoc 4, 2009, 1064-1072. Briefly, 1×10^7 plaque-forming units of Adeno-Cre were mixed with Eagle's minimum essential medium (MEM) and calcium chloride. The mixture was incubated on ice for 20 minutes and used for intranasal dropping within one hour of the preparation. Droplets containing the Adeno-Cre mixture were administered to the nostrils of anesthetized mice (eight to 12 weeks old) using a pipette. The mice were allowed to inhale the droplets gradually.
# The lung tissues were fixed in 10% formalin (Mildform 10N; FUJIFILM Wako Pure Chemical Corporation, Osaka) and embedded in paraffin. The slices were stained with hematoxylin-eosin (HE) or elastica-Masson (EM). To measure the tumor areas, five slices were cut out with a certain distance and stained with HE. The tumor areas were measured using ImageJ software (NIH).
# To examine whether administration of HF or HFm could suppress the progress of Nrf2-activated non-small-cell lung cancer (NSCLC), a Kras-driven lung adenocarcinoma mouse model was used (Genes&Dev., 2001, 15:3243-3248). A mouse having a loxP-Stop-loxP Kras^G12D-knocked-in allele (hereinafter also referred to as “Kras mouse”) was mated with a mouse having a Keap1-flox allele in the loxP site including the third and fourth exons (hereinafter also referred to as “Keap1^FB”) (Am J Respir Cell Mol Biol., 2010 May, 42(5):524-36), and thus a Keap1^FB/FB:Kras^G12D complex mouse was obtained (Cancer Res, 15 Aug. 2020, 80(16):3331-3344). Through Cre recombination by intranasal infection with Adeno-Cre, activation of Kras cancer gene and deletion of Keap1 exons were achieved simultaneously. By this operation, Nrf2-activated lung adenocarcinoma was successfully imitated in mice.
# Then, after the tumor was grown for 17 weeks, administration of HF or HFm was started. HF or HFm was intravenously administered every two days, and injection was conducted four times in total. Because the MTD of HF was determined to be 0.75 mg/kg bw (FIG. 2), it was decided to use 0.75 mg/kg bw of HF or HFm in this cancer-bearing mouse experiment. The mice were sacrificed on the eighth day. Various characteristics of the lung tumors were analyzed, and the effectiveness of HF and HFm changing the tumor burden was evaluated (FIG. 4A).
# Next, by EM staining of the lung slices, the influence of HF and HFm on the malignancy of tumors was examined (FIG. 4C, bottom). Using images of the slices, the lung lesions were evaluated according to the guidelines of the system of the 2015 World Health Organization Classification of Lung Tumors (Front Oncol., 2017 Aug 28, 7: 193). Briefly, lung tumors include two types, namely a lepidic lesion and a papillary lesion. A lepidic lesion indicates in situ proliferation of cells along the alveolar walls (arrows with “x”), while a papillary lesion indicates proliferation away from the alveolar walls (arrows with “y”). A tumor with many papillary lesions is called Grade II, and it is known that the prognoses of a patient having many papillary tumors is poor compared to that of a patient having many lepidic tumors (Grade I). When the main component of the tumor is composed of a solid sheet and when no recognizable lepidic or papillary pattern is found, the tumor is classified as a solid tumor (Grade III).
# (§5) After KRAS-driven lung adenocarcinoma was grown for 17 weeks, the mice were treated with saline, HF (0.25 mg/kg), or HFm (0.25 mg/kg) every two days four times in total (FIG. 7A).
# [4] = Systemic side effect markers in cancer-bearing mice; format: in vivo, Keap1^FB/FB:Kras^G12D mice
# Text: (§6) Monocytes were isolated from the bone marrow, the spleen, and the thymus using Ficoll-Paque PREMIUM 1.084 (Cytiva 17-5446-02). The monocytes were stained with allophycocyanin-eFluor 780 conjugate anti-c-Kit (Invitrogen; Clone 2B8), Brilliant Violet 421 conjugate anti-B220 (Biolegend; Clone RA2-6B2), phycoerythrin conjugate anti-F4/80 (Biolegend; Clone BM8), fluorescein isothiocyanate conjugate anti-Ly6G (Biolegend; Clone 1A8), Brilliant Violet 421 conjugate anti-CD11b (Biolegend; Clone M1/70), fluorescein isothiocyanate conjugate anti-CD71 (eBiosciences; CloneR17217), phycoerythrin conjugate anti-Ter119 (eBiosciences; Clone TER-119), PE-Cyanine7 conjugate anti-CD4 (Invitrogen; CloneGK1.5), and allophycocyanin conjugate anti-CD8 (Biolegend; Clone S3-6.7). The dead cells were removed using propidium iodide staining. The analysis was made using FACSVerse (BD Biosciences). The data were analyzed using FlowJo software (BD Biosciences).
# Because HF is slowly and continuously released from HFm through encapsulation of HF in polymer micelles, it was supposed that HFm may act as a far safer drug than HF. Thus, because the MTD of HF was 0.75 mg/kg bw, various side effect markers were examined in cancer-bearing model mice treated with 0.75 mg/kg bw of HFm and compared with those of the mice treated with the same amount of HF.
# as §5
# [5] = system: Nrf2 protein in Keap1 KO-mCherry cells; assay: Immunoblotting of Nrf2 protein after HF treatment; format: cell-based; settings: 50 nM HF, 0-18 hours, whole cell lysates
# Procedure: (§7) For analyzing cultured cells, 1×10^6 WT-GFP and Keap1-mCherry Hepa1 cells were separately seeded on day −1 and treated with 50 nM HF on the next day (day 0). Whole cell lysates were prepared by lysing the cells with SDS buffer (0.25 M Tris-HCl (pH 6.8), 8% (w/v) SDS, and 20% glycerol) and collected 0, three, six, 12, and 18 hours after the HF treatment. An anti-Nrf2 antibody (Cell Signaling Technology, #12721, 1:500 dilution) and an anti-α-tubulin antibody (Sigma, T9026, 1:1000 dilution) were used.
# (§8) To examine whether the selective decrease in the Keap1 KO-mCherry cells was caused by suppression of Nrf2 accumulation, Nrf2 protein was analyzed by immunoblotting at various points in time after isogenic Hepa1 cells were exposed to HF. […] The above experiment was repeated, and densitometry measurement of immunoblotting bands was conducted (FIG. 1F).
# [6] = system: Nrf2 protein in WT-GFP cells; assay: Immunoblotting of Nrf2 protein after HF treatment; format: cell-based; settings: 50 nM HF, 0-18 hours, whole cell lysates
# Procedure: as §7, §8
# [7] = Dose-dependent in vivo toxicity / maximum tolerated dose of HF; parameters: species or system WT C57BL/6 mice
# Text: as §4, §6
# Preclinical animal testing was conducted to determine the maximum tolerated dose (hereinafter also referred to as MTD) of HF. […] Thus, in this test, HF was administered to WT C57BL/6 mice (eight to 12 weeks old, both females and males) incrementally in the range of 0.25 mg/kg to 1 mg/kg (FIG. 2A). HF was administered to the tail veins every two days four times in total.
# [8] = 0.75 mg/kg bw iv four times, vs. saline
# [9] = 0.75 mg/kg bw iv four times, vs. HFm or saline
# [10] = 0.25 to 0.75 mg/kg iv four times
compound,measurement,setting,value
"O=C(CC1NCCCC1O)Cn1cnc2cc(Br)c(Cl)cc2c1=O (stereo not shown) [HF, Halofuginone hydrobromide]",count of WT-GFP cells (relative fluorescence intensity),[1],did not decrease substantially
same,count of Keap1 KO-mCherry cells (relative fluorescence intensity),[2],decreased significantly in a concentration-dependent manner
same,number of papillary lesions vs. saline,[3]; 0.25 mg/kg bw iv four times,far smaller
same,number of solid tumors vs. saline,[3]; 0.25 mg/kg bw iv four times,smaller with significance
same,lung weight vs. saline-treated mice,"[3]; 0.75 mg/kg bw iv every two days four times, day 8",lower with significance
same,solid adenocarcinomas of Grade III,[3]; 0.75 mg/kg bw iv four times,disappeared completely
same,number of lepidic (Grade I) tumors,[3]; [8],equivalent numbers
same,number of papillary (Grade II) tumors,[3]; [8],equivalent numbers
same,frequency of the papillary tumors,"[3]; 0.75 mg/kg bw iv four times, vs. saline control",lower
same,tumor area (HE-stained lung sections),"[3]; 0.75 mg/kg bw iv four times, saline-treated group 21%",10%
same,lung weight decrease (saline vs. treatment),[3]; high dose (0.75 mg/kg),37.6%
same,tumor area decrease (saline vs. treatment),[3]; high dose (0.75 mg/kg),9.95%
same,lung weight decrease (saline vs. treatment),[3]; low dose (0.25 mg/kg),25.7%
same,tumor area decrease (saline vs. treatment),[3]; low dose (0.25 mg/kg),7.42%
same,disappearance of solid tumors,[3]; low-dose therapy (0.25 mg/kg bw),did not disappear completely
same,erythrocyte count in peripheral blood,[4]; 0.25 mg/kg bw iv four times,did not affect
same,leukocyte count in peripheral blood,[4]; 0.25 mg/kg bw iv four times,decreased the leukocyte count with significance
same,body weight changes,"[4]; 0.25 mg/kg bw iv four times, vs. other groups",equivalent
same,atrophy of the thymus,[4]; 0.75 mg/kg bw iv four times,remarkable
same,erythroblasts (Ter119+CD71+) of the spleen,[4]; 0.75 mg/kg bw iv four times,decreased with significance
same,erythrocytes in peripheral blood,[4]; 0.75 mg/kg bw iv four times,decreased
same,hematocrit levels,[4]; 0.75 mg/kg bw iv four times,decreased
same,leukocyte count in peripheral blood,[4]; 0.75 mg/kg bw iv four times,significant decrease
same,spleen cell count,[4]; 0.75 mg/kg bw iv four times,decreased with significance
same,spleen weight,[4]; 0.75 mg/kg bw iv four times,decreased with significance
same,thymus CD4 single-positive cells (CD4+CD8-) count,[4]; 0.75 mg/kg bw iv four times,decreased
same,thymus double-negative cells (CD4-CD8-) count,[4]; 0.75 mg/kg bw iv four times,decreased
same,thymus double-positive cells (CD4+CD8+) count,[4]; 0.75 mg/kg bw iv four times,decreased
same,thymus total cell count,[4]; 0.75 mg/kg bw iv four times,decreased significantly
same,total cell count of the bone marrow,[4]; 0.75 mg/kg bw iv four times,decreased significantly
same,bone marrow B cells (B220+) count,[4]; [9],decreased significantly
same,bone marrow macrophages (CD11b+F4/80+) count,[4]; [9],decreased significantly
same,bone marrow neutrophils (CD11b+Ly6G+) count,[4]; [9],decreased significantly
same,bone marrow precursor cells (c-Kit+) count,[4]; [9],decreased significantly
same,thymus CD8 single-positive cells (CD4-CD8+),"[4]; 0.75 mg/kg bw iv four times, vs. saline or HFm",tendency towards a lower frequency
same,Nrf2 protein level,[5],depleted rapidly
same,Nrf2 protein level,[6],not detected at all the points in time
same,bone marrow B cell count (B220+),[7]; 0.75 mg/kg iv four times,decreased
same,erythroblasts (Ter119+CD71+) of the spleen,[7]; 0.75 mg/kg iv four times,most of the erythroblasts disappeared
same,acute condition of mice,[7]; 1 mg/kg iv every two days,showed a sign of acute disorder after two injections and were moribund
same,body weight change,"[7]; 1 mg/kg iv, day 1 vs. day 4",−13.4%
same,mortality,"[7]; 1 mg/kg iv, eight mice, after second administration",one mouse in the administration group died
same,bone marrow precursor cell count (c-Kit+),[7]; [10],did not change largely
same,bone marrow total cell count,[7]; [10],did not change largely
same,erythroblasts (Ter119+CD71+) of the spleen,[7]; [10],decreased largely in a dose-dependent manner
same,erythrocyte counts in peripheral blood,[7]; [10],equivalent in all the groups
same,leukocyte count in peripheral blood,[7]; [10],decreased in a dose-dependent manner
same,platelet counts in peripheral blood,[7]; [10],equivalent in all the groups
same,thymus weight,[7]; [10],decreased with significance in a dose-dependent manner
same,whole cells of the spleen,[7]; [10],decreased largely in a dose-dependent manner
same,thymus CD4 single-positive (CD4+CD8-) cells,[7]; HF iv four times,decreased
same,thymus CD8 single-positive (CD4-CD8+) cells,[7]; HF iv four times,tendency towards a decrease
same,total cells of the thymus,[7]; HF iv four times,decreased
same,spleen weight,"[7]; increasing HF dose, iv four times",decreased stepwisely
same,maximum tolerated dose (MTD),[7]; iv every two days four times,0.75 mg/kg bw
